One experiment concerns microorganisms. As to conditions: 1996 paper, Fundamental and Applied Toxicology; cited from earlier work.
Experiment [1] has as its system E. coli bacteria. In words: Growth test of E. coli, 15 s exposure (Example 5). Format: cell-based. As to conditions: exposed 15 seconds. The procedure: (§1) Both S. marcescens and E. coil were cultured in CASO broth overnight. The cells were exposed to one of four compounds for 15 seconds: DE broth, 60% Isopropyl Alcohol (IPA), A hand sanitizer on the market with 62% ethanol as an active ingredient (HSM), and the hand sanitizer specified in the patent (WB). The samples were then diluted by factors of powers of ten from a 10^−1 dilution to a 10^−10 dilution. 0.1 mL of each dilution was then plated onto a CASO plate, and then incubated for 24 hours. For Example 5, there was no ethanol present in the hand sanitizer formulation. The formulation consisted of 45% by volume of n-butanol, 10% of the humectant, and the remainder being water. The protocol followed for Example 5 was the same as the protocol for Example 4.

Experiment [2] has as its system E. coli bacteria. The experiment can be described thus: Growth test of E. coli, different growth medium, 0.5 mL plated (Example 3). The class given is cell-based. The following applies: exposed 10 s. The procedure:
A 50 mL culture of the bacterium […] marcescens (S. marcescens) was grown, and four compounds were tested: an ethanol-based hand sanitizer currently on the market with 63% ethyl alcohol as the active ingredient, 60% isopropyl alcohol, and water as a control. 0.05 mL of the culture was exposed to one of the compounds for 15 and 60 seconds (except for the water, which was exposed for 30 seconds), and diluted by factors of powers of ten from a 10^-1 dilution to a 10^-10 dilution. 1 mL of each dilution was plated onto a CASO (a type of media) plate, and was incubated at 25 degrees Celsius (77 degrees Fahrenheit) for 48 hours. The colonies on the plates were then counted. The following is a table of the number of colonies on each plate (note-“Lawn” means that there were too many colonies to count individually). Example 2 followed the same protocol as Example 1, except E. coli bacteria were used instead of S. marcescens. Example 3 followed the same protocol as Example 2, except for the following: A different type of growth medium was used on the plates, and 0.5 mL of culture was plated onto each plate instead of 1 mL in order to prevent flooding the plate. In this Example, 60% isopropanol, an ethanol-based hand sanitizer on the market and the hand sanitizer proposed in the patent were all exposed to bacteria for 10 seconds, than plated.

For experiment [3], the system named is E. coli bacteria. The experiment can be described thus: Growth test of E. coli, 15 s exposure, CASO plate (Example 4). The following applies: exposed 15 seconds, 0.1 mL plated. Format: cell-based. The procedure: (§2) Both S. marcescens and E. coil were cultured in CASO broth overnight. The cells were exposed to one of four compounds for 15 seconds: DE broth, 60% Isopropyl Alcohol (IPA), A hand sanitizer on the market with 62% ethanol as an active ingredient (HSM), and the hand sanitizer specified in the patent (WB). The samples were then diluted by factors of powers of ten from a 10^−1 dilution to a 10^−10 dilution. 0.1 mL of each dilution was then plated onto a CASO plate, and then incubated for 24 hours. Note—the abbreviation “TNTC” stands for “too numerous to count”. “Lawn” represents a sample that was filled with bacteria.

Experiment [4] deals with S. marcescens bacteria. The experiment can be described thus: Growth test of S. marcescens, 15 s exposure (Example 5). The class given is cell-based. The following applies: exposed 15 seconds. The procedure:
as §1

The test system of experiment [5] is S. marcescens bacteria. In words: Growth test of S. marcescens, 15 s exposure, CASO plate (Example 4). The class given is cell-based. As to conditions: exposed 15 seconds, 0.1 mL plated. The procedure: as §2
Experiment [6] relates to E. coli bacteria. The experiment can be described thus: Growth test of E. coli after exposure to sanitizer, dilution plating (Example 2). Format: cell-based. The procedure: A 50 mL culture of the bacterium […] marcescens (S. marcescens) was grown, and four compounds were tested: an ethanol-based hand sanitizer currently on the market with 63% ethyl alcohol as the active ingredient, 60% isopropyl alcohol, and water as a control. 0.05 mL of the culture was exposed to one of the compounds for 15 and 60 seconds (except for the water, which was exposed for 30 seconds), and diluted by factors of powers of ten from a 10^-1 dilution to a 10^-10 dilution. 1 mL of each dilution was plated onto a CASO (a type of media) plate, and was incubated at 25 degrees Celsius (77 degrees Fahrenheit) for 48 hours. The colonies on the plates were then counted. The following is a table of the number of colonies on each plate (note-“Lawn” means that there were too many colonies to count individually). Example 2 followed the same protocol as Example 1, except E. coli bacteria were used instead of S. marcescens.

Experiment [7] relates to Seratia marcescens (S. marcescens). In words: Growth test of S. marcescens after exposure to sanitizer, dilution plating (Example 1). Format: cell-based. The procedure: A 50 mL culture of the bacterium […] marcescens (S. marcescens) was grown, and four compounds were tested: an ethanol-based hand sanitizer currently on the market with 63% ethyl alcohol as the active ingredient, 60% isopropyl alcohol, and water as a control. 0.05 mL of the culture was exposed to one of the compounds for 15 and 60 seconds (except for the water, which was exposed for 30 seconds), and diluted by factors of powers of ten from a 10^-1 dilution to a 10^-10 dilution. 1 mL of each dilution was plated onto a CASO (a type of media) plate, and was incubated at 25 degrees Celsius (77 degrees Fahrenheit) for 48 hours. The colonies on the plates were then counted. The following is a table of the number of colonies on each plate (note-“Lawn” means that there were too many colonies to count individually).

SMILES strings stand for the structures.

The text below walks through data of patent US9456602B2, “Method for the formulation of hand sanitizer” (Working Bugs, LLC, priority 2011, dated 2016).

Regarding `CCCCO` [1-butanol], in the experiment on microorganisms, the “effectiveness in killing microorganisms compared with ethanol” value (“effectiveness … compared with ethanol” below) is “more effective”.

Take `CCCCCO` [1-pentanol]: in the experiment on microorganisms, the “effectiveness … compared with ethanol” value was “more effective”.

With `CCCO` [1-propanol], the “effectiveness … compared with ethanol” value in the experiment on microorganisms is recorded as “more effective”.

For `CC(C)O` [IPA, isopropyl alcohol], the “growth test plate count” value in the experiment with E. coli bacteria [1] (10^−1 dilution), with E. coli bacteria [1] (10^−2 dilution), with E. coli bacteria [1] (10^−3 dilution), with E. coli bacteria [1] (10^−4 dilution), in the experiment on E. coli bacteria [1] (10^−5 dilution) and in the experiment with E. coli bacteria [3] (10^−1 dilution) was 0 throughout. The “growth test plate count” value in the experiment on E. coli bacteria [3] (10^−2 dilution), in the experiment on E. coli bacteria [3] (10^−3 dilution), in the experiment with E. coli bacteria [3] (10^−4 dilution), in the experiment on E. coli bacteria [3] (10^−5 dilution), with S. marcescens bacteria [4] (10^−1 dilution) and in the experiment with S. marcescens bacteria [4] (10^−2 dilution) was 0 in each case. Besides, the “growth test plate count” value in the experiment on S. marcescens bacteria [4] (10^−3 dilution) amounted to 0; in the experiment on S. marcescens bacteria [4] (10^−4 dilution) it was 0; in the experiment on S. marcescens bacteria [4] (10^−5 dilution) it was 0; in the experiment with S. marcescens bacteria [5] (10^−1 dilution), 1; with S. marcescens bacteria [5] (10^−2 dilution), 3; in the experiment with S. marcescens bacteria [5] (10^−3 dilution), 10. In addition, the “growth test plate count” value in the experiment with S. marcescens bacteria [5] (10^−4 dilution) is 6; with S. marcescens bacteria [5] (10^−5 dilution), 2. Besides, the “number of colonies on plate” value in the experiment on E. coli bacteria [2] (10^−1 dilution), in the experiment with E. coli bacteria [2] (10^−2 dilution), with E. coli bacteria [2] (10^−3 dilution), in the experiment with E. coli bacteria [2] (10^−4 dilution), with E. coli bacteria [2] (10^−5 dilution) and in the experiment with E. coli bacteria [2] (10^−6 dilution) was 0 colonies in each case. For the same compound, the “number of colonies on plate” value in the experiment on E. coli bacteria [2] (10^−7 dilution) is on record as 0 colonies; in the experiment on E. coli bacteria [2] (10^−8 dilution) it was 0 colonies; in the experiment on E. coli bacteria [2] (10^−9 dilution), 0 colonies; with E. coli bacteria [2] (10^−10 dilution), 0 colonies; in the experiment with E. coli bacteria [6] (exposed 15 s, 10^−1 dilution) it was 0 colonies; in the experiment on E. coli bacteria [6] (exposed 15 s, 10^−2 dilution) it was 0 colonies. For the same compound, the “number of colonies on plate” value was determined as 0 colonies with E. coli bacteria [6] (exposed 15 s, 10^−3 dilution); 0 colonies in the experiment with E. coli bacteria [6] (exposed 15 s, 10^−4 dilution); 0 colonies in the experiment on E. coli bacteria [6] (exposed 15 s, 10^−5 dilution); 0 colonies in the experiment with E. coli bacteria [6] (exposed 15 s, 10^−6 dilution); 0 colonies in the experiment on E. coli bacteria [6] (exposed 15 s, 10^−7 dilution); 0 colonies in the experiment on E. coli bacteria [6] (exposed 15 s, 10^−8 dilution). In addition, the “number of colonies on plate” value in the experiment with E. coli bacteria [6] (exposed 15 s, 10^−9 dilution) worked out at 0 colonies; in the experiment with E. coli bacteria [6] (exposed 15 s, 10^−10 dilution), 0 colonies; in the experiment with E. coli bacteria [6] (exposed 60 s, 10^−1 dilution) it was 0 colonies; in the experiment with E. coli bacteria [6] (exposed 60 s, 10^−2 dilution), 0 colonies; with E. coli bacteria [6] (exposed 60 s, 10^−3 dilution), 0 colonies; in the experiment on E. coli bacteria [6] (exposed 60 s, 10^−4 dilution) it was 0 colonies. The “number of colonies on plate” value with E. coli bacteria [6] (exposed 60 s, 10^−5 dilution) was determined as 0 colonies; with E. coli bacteria [6] (exposed 60 s, 10^−6 dilution) it was 0 colonies; with E. coli bacteria [6] (exposed 60 s, 10^−7 dilution), 0 colonies; in the experiment with E. coli bacteria [6] (exposed 60 s, 10^−8 dilution), 0 colonies; with E. coli bacteria [6] (exposed 60 s, 10^−9 dilution) it was 0 colonies; in the experiment on E. coli bacteria [6] (exposed 60 s, 10^−10 dilution) it was 0 colonies. Besides, the “number of colonies on plate” value came to 0 colonies in experiment [7] (exposed 15 s, 10^−1 dilution); 0 colonies in experiment [7] (exposed 15 s, 10^−2 dilution); 0 colonies in experiment [7] (exposed 15 s, 10^−3 dilution); 0 colonies in experiment [7] (exposed 15 s, 10^−4 dilution); 0 colonies in experiment [7] (exposed 15 s, 10^−5 dilution); 0 colonies in experiment [7] (exposed 15 s, 10^−6 dilution). For the same compound, the “number of colonies on plate” value was determined as 0 colonies in experiment [7] (exposed 15 s, 10^−7 dilution); 0 colonies in experiment [7] (exposed 15 s, 10^−8 dilution); 0 colonies in experiment [7] (exposed 15 s, 10^−9 dilution); 0 colonies in experiment [7] (exposed 15 s, 10^−10 dilution); 0 colonies in experiment [7] (exposed 60 s, 10^−1 dilution); 0 colonies in experiment [7] (exposed 60 s, 10^−2 dilution). The “number of colonies on plate” value was determined as 0 colonies in experiment [7] (exposed 60 s, 10^−3 dilution); 0 colonies in experiment [7] (exposed 60 s, 10^−4 dilution); 0 colonies in experiment [7] (exposed 60 s, 10^−5 dilution); 0 colonies in experiment [7] (exposed 60 s, 10^−6 dilution); 0 colonies in experiment [7] (exposed 60 s, 10^−7 dilution); 0 colonies in experiment [7] (exposed 60 s, 10^−8 dilution). Further, the “number of colonies on plate” value in experiment [7] (exposed 60 s, 10^−9 dilution) was determined as 0 colonies; in experiment [7] (exposed 60 s, 10^−10 dilution), 0 colonies.
